Reference: ChEMBL document CHEMBL1255560, “2-, 3-, and 4-(1-Oxo-1H-2,3-dihydroisoindol-2-yl)benzoic acids and their corresponding organotin carboxylates: synthesis, characterization, fluorescent, and biological activities” (2010)
In brackets after ≈: the same amount, converted by molar mass.

Experiments:
Assay type in all cases: functional
Staphylococcus aureus = assay: Antibacterial activity against Staphylococcus aureus by double dilution technique
Pseudomonas aeruginosa = assay: Antibacterial activity against Pseudomonas aeruginosa by double dilution technique
Candida albicans = assay: Antifungal activity against Candida albicans by double dilution technique
Escherichia coli = assay: Antibacterial activity against Escherichia coli by double dilution technique

O=C(O)c1cccc(N2Cc3ccccc3C2=O)c1
MIC (Staphylococcus aureus): 1.25 µg/mL (≈ 4.94 µM) | MIC (Pseudomonas aeruginosa): 0.625 µg/mL (≈ 2.47 µM) | MIC (Candida albicans): 0.625 µg/mL (≈ 2.47 µM) | MIC (Escherichia coli): 0.625 µg/mL (≈ 2.47 µM)

O=C(O)c1ccc(N2Cc3ccccc3C2=O)cc1
MIC (Staphylococcus aureus): 1.25 µg/mL (≈ 4.94 µM) | MIC (Pseudomonas aeruginosa): 0.625 µg/mL (≈ 2.47 µM) | MIC (Candida albicans): 1.25 µg/mL (≈ 4.94 µM) | MIC (Escherichia coli): 1.25 µg/mL (≈ 4.94 µM)

O=C(O)c1ccccc1N1Cc2ccccc2C1=O
MIC (Staphylococcus aureus): 2.5 µg/mL (≈ 9.87 µM) | MIC (Pseudomonas aeruginosa): 1.25 µg/mL (≈ 4.94 µM) | MIC (Candida albicans): 1.25 µg/mL (≈ 4.94 µM) | MIC (Escherichia coli): 2.5 µg/mL (≈ 9.87 µM)
